Patent US9340556B2, “Antibacterial compounds” (GLAXO GROUP LIMITED, priority 2011, dated 2016)
Structures can show the parent of a compound that is named as a salt.

Assay: Antimicrobial activity assay: whole-cell broth microdilution MIC (CLSI M7-A7)
Type: cell-based
Conditions: for at least one strain of one organism listed, serial two-fold dilutions 0.064 to 64 μg/ml, in the presence of 20 uM human apo-Transferrin, tested in at least one exemplified salt or free base form, read-out: MIC (minimum inhibitory concentration)
Procedure: Antimicrobial Activity Assay
Whole-cell antimicrobial activity was determined by broth microdilution using the Clinical and Laboratory Standards Institute (CLSI) recommended procedure, Document M7-A7, “Methods for Dilution Susceptibility Tests for Bacteria that Grow Aerobically”. In some cases, broth microdilution MICs were determined using IsoSensitest broth (Oxoid) in place of CLSI recommended cation adjusted Mueller-Hinton broth. The compounds were tested in serial two-fold dilutions ranging from 0.064 to 64 μg/ml in the presence of 20 uM human apo-Transferrin (Sigma T-1147).
Compounds were evaluated against Gram-negative organisms selected from Escherichia coli, Pseudomonas aeruginosa, Proteus mirabilis, Enterobacter cloacae, Enterobacter aerogenes, Klebsiella pneumoniae, Stenotrophomonas maltophilia, Acinetobacter baumanii, Serratia marascens, Citrobacter freundii, and Klebsiella oxytoca.
The minimum inhibitory concentration (MIC) was determined as the lowest concentration of compound that inhibited visible growth. A mirror reader was used to assist in determining the MIC endpoint.
Each of the listed Examples 1 to 56 and 59 to 61 identified in the present application, were tested in at least one exemplified salt or free base form.

For Cn1cc(O)c(=O)c2cc(C[N+]3(CC4=C(C(=O)[O-])N5C(=O)[C@@H](NC(=O)/C(=N\O[C@@H](CC(=O)O)C(=O)O)c6csc(N)n6)[C@H]5SC4)CCCC3)ccc21 [Example 5, (6R,7R)-7-((Z)-2-(2-aminothiazol-4-yl)-2-(((S)-1,2-dicarboxyethoxy)imino)acetamido)-3-((1-((3-hydroxy-1-methyl-4-oxo-1,4-dihydroquinolin-6-yl)methyl)pyrrolidin-1-ium-1-yl)methyl)-8-oxo-5-thia-1-azabicyclo[4.2.0]oct-2-ene-2-carboxylate, 3 Sodium salt], the MIC was no more than 8 mg/L.
